Reference: patent EP4696688A1, “BENZO-FUSED RING COMPOUND INHIBITOR, AND PREPARATION METHOD THEREFOR AND USE THEREOF” (Shanghai Hansoh Biomedical Co., Ltd., priority 2023, dated 2024)

How the values were obtained:
human CYP11B2 = molecular target: T1, human CYP11B2 (Homo sapiens, UniProt P19099); test: G-402 cell enzyme experiment, CYP11B2 (aldosterone product, HTRF); format: cell-based; details: G-402 cells stably expressing human CYP11B2, 1 µM 11-deoxycorticosterone, 16 h
T1 construct: The main elements of an expression plasmid include ORF of human CYP11B1 or human CYP11B2; expressed in transfected cells
T1 sequence (P19099 25-503): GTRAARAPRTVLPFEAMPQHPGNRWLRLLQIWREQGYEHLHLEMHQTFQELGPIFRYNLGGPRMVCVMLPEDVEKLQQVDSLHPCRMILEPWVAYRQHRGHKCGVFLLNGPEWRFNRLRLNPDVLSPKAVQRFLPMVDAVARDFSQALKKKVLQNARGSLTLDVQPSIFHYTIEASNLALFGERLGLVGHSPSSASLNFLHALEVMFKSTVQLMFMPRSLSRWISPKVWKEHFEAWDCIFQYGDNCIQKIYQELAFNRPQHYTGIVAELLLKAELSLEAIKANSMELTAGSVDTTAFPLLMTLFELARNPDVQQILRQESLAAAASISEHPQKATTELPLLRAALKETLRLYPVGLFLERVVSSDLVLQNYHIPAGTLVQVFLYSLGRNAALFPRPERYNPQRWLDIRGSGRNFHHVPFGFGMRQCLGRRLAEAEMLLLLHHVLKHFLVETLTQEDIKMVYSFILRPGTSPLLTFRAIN
Method in brief: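 Stably transfected G-402 cells in DMEM/F12 with 2.5% charcoal-treated FBS, incubated 16 h with 1 µM 11-deoxycorticosterone (CYP11B2, aldosterone product) or 1 µM 11-deoxycortisol (CYP11B1, cortisol product). Supernatant product measured by HTRF; EC50 from 4-parameter MMF sigmoidal fit, minimum defined by empty-plasmid cells.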

human CYP11B1 = molecular target: T2, human CYP11B1 (Homo sapiens, UniProt P15538); test: G-402 cell enzyme experiment, CYP11B1 (cortisol product, HTRF), selectivity versus CYP11B2; format: cell-based; details: human selective factor: ratio of CYP11B1 EC50 to CYP11B2 EC50; G-402 cells
T2 construct: The main elements of an expression plasmid include ORF of human CYP11B1 or human CYP11B2; expressed in transfected cells
T2 sequence (P15538 25-503): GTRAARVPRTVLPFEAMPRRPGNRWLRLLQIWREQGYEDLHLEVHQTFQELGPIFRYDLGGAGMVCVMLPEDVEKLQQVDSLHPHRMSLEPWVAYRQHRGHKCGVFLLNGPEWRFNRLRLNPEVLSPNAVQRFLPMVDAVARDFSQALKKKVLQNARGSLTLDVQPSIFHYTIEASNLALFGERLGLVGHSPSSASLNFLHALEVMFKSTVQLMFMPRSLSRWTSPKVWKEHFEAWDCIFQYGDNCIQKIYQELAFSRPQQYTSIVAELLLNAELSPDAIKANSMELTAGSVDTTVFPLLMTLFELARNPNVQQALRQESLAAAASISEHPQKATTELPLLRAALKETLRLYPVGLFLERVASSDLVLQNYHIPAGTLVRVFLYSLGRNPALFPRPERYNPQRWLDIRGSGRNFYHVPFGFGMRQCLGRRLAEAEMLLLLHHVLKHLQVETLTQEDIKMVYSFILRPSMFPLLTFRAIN

[1] = Pharmacokinetic determination in rats; format: in vivo; details: rat, male SD rats, plasma, oral administration (PO) 5 mg/kg
Procedure: SD rats were used as test animals to study the pharmacokinetic behavior of the compounds of the present invention in rats (plasma) after oral administration.
3 SD rats per group, male.
Formulation of drug for oral administration: 0.5% CMC-Na (1% Tween 80)
5 g of sodium carboxymethyl cellulose (CMC-Na, viscosity: 800-1200 Cps) was weighed and dissolved in 1000 mL of purified water, and 10 g of Tween 80 was added. These materials were uniformly mixed to form a clear solution.
The example compounds were weighed and dissolved in the solution and the mixture was shaken well and ultrasonicated for 15 min to obtain a colorless clear solution with a concentration of 0.5 mg/mL. Formulation of drug for intravenous administration: 5% DMSO + 10% Solutol HS15 + 85% PBS
After overnight fasting, 3 male SD rats per group were administered orally (PO) at a dose of 5 mg/kg with an administration volume of 10 mL/kg. […]
0.2 mL of blood was collected from the jugular vein of the experimental animals before administration and at 0.25 h, 0.5 h, 1.0 h, 2.0 h, 4.0 h, 6.0 h, 8.0 h, and 24.0 h after administration and placed in an EDTA-2K test tube, and the test tube was centrifuged at 8000 rpm for 6 min at 4°C to separate the plasma, which was stored at -80°C; and the animals were fed 4 h after administration.
3 Experimental results: The final determination results were obtained by using LCMS/MS method.

CCC(=O)N[C@@H]1CCCc2c(-c3ccc4c(cnn4C)c3)cncc21 [Example 60, (R)-N-(4-(1-methyl-1H-indazol-5-yl)-5,6,7,8-tetrahydroisoquinolin-8-yl)propanamide]
EC50 (human CYP11B2): 69 nM
hsF (human CYP11B1): 170x
AUC(0-inf) [1]: 22400 ng·h/mL
AUC(0-t) [1]: 21800 ng·h/mL
Cmax [1]: 4900 ng/mL
Tmax [1]: 2 h
half-life [1]: 1.3 h
MRT inf ([1]; read-out: MRT0-∞): 3.1 h
